Experimental data as given in ChEMBL document CHEMBL1139949, “Structure-activity relationship, kinetic mechanism, and selectivity for a new class of ubiquitin C-terminal hydrolase-L1 (UCH-L1) inhibitors” (Bioorg Med Chem Lett, 2007).
Calls of active or inactive are those of the source. The rule behind the calls is not given here.

Legend:
[1] = target: T1, Ubiquitin carboxyl-terminal hydrolase isozyme L3 (Homo sapiens) (UniProt P15374); test: Inhibition of UCHL3 at 20 uM
T1 sequence (whole entry): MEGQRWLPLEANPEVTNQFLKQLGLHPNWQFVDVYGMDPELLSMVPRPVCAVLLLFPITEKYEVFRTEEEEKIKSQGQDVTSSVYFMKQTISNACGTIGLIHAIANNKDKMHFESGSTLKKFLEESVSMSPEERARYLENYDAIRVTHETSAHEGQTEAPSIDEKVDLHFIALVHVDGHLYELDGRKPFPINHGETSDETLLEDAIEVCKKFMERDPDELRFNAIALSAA

[2] = target: T2, Protein-glutamine gamma-glutamyltransferase (Homo sapiens) (UniProt P21980); test: Inhibition of TGase 2 at 40 uM
T2 sequence (whole entry): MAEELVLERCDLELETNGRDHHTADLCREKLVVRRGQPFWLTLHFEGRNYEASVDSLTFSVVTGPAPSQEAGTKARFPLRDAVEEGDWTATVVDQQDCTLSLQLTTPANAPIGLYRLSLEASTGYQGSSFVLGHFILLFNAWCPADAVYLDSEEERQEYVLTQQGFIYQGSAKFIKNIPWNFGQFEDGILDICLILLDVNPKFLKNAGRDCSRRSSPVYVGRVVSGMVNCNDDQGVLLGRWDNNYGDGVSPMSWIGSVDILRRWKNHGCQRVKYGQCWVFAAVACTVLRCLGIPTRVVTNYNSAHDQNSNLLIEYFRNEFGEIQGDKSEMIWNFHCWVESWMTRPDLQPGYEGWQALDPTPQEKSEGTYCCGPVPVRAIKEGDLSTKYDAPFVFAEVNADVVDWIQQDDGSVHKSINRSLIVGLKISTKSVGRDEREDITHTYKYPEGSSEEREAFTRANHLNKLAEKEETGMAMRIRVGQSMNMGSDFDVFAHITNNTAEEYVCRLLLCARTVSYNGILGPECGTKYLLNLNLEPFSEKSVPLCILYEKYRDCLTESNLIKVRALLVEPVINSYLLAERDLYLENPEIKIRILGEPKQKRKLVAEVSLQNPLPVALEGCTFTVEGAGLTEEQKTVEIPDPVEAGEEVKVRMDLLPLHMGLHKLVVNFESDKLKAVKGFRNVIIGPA

N2a = test: Cytotoxicity against serum-starved mouse N2A cells at 0.1 mM; assay type: cell-based; conditions: 100 µM
Papain (Carica papaya) = target: T3, Papain (Carica papaya) (UniProt P00784); test: Inhibition of papain at 40 uM
T3 sequence (whole entry): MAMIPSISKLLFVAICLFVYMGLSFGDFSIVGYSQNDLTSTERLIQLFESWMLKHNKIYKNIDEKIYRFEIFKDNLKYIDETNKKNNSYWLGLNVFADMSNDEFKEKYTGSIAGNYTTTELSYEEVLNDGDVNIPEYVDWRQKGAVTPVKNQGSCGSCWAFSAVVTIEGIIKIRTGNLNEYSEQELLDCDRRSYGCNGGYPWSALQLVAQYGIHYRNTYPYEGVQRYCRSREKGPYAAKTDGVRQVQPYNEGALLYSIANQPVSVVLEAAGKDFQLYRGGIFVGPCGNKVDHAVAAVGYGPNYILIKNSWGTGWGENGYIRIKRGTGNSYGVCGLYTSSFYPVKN

Caspase-3 (Homo sapiens) = target: T4, Caspase-3 (Homo sapiens) (UniProt P42574); test: Inhibition of caspase 3 at 40 uM
T4 sequence (whole entry): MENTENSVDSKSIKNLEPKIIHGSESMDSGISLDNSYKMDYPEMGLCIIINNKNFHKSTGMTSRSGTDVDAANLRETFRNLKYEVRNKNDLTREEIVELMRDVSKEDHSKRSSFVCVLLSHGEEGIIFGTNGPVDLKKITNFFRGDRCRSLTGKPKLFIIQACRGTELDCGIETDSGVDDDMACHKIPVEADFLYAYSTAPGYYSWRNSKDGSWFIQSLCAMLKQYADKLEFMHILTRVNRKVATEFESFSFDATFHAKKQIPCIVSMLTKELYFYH

[3] = target: T5, Ubiquitin carboxyl-terminal hydrolase 5 (Homo sapiens) (UniProt P45974); test: Inhibition of isopeptidase T at 40 uM
T5 sequence (whole entry): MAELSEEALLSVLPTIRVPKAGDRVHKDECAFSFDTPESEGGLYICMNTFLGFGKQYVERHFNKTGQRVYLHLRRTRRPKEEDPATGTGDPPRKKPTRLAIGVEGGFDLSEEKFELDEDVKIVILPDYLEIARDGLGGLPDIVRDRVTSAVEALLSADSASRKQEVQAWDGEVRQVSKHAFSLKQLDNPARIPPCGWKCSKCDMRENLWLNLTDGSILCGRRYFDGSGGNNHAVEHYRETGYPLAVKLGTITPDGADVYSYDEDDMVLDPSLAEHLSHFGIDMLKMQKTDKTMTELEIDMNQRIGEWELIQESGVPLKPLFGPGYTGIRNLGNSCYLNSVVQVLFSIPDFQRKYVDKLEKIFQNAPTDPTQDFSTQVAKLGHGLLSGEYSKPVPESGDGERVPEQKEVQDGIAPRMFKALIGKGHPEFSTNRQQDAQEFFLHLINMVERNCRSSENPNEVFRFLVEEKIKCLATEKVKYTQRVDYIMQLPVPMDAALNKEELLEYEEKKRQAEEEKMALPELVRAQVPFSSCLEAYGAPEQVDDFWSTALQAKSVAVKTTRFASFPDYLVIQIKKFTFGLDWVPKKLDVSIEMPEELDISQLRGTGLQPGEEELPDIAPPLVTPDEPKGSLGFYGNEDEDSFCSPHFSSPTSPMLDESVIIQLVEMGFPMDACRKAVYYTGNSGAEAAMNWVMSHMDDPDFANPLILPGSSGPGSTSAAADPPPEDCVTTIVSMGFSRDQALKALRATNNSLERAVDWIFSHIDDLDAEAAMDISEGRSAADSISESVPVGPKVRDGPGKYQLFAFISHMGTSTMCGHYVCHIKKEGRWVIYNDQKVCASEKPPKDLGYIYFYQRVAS

Activity [1]	Activity [2]	Activity (Papain (Carica papaya))	Activity (Caspase-3 (Homo sapiens))	inhibition [1]	Activity [3]	SMILES	Activity (N2a)
inactive	inactive	inactive	inactive	–	–	Cl.Nc1c(C(=O)c2ccccc2)sc2[nH]c(=O)c(C(=O)O)cc12	Non-toxic
–	–	inactive	–	30%	inactive	Cc1ccc(C(=O)c2sc3[nH]c(=O)c(C(=O)O)cc3c2N)cc1	–
–	–	inactive	–	–	–	Nc1c(C(=O)c2ccc(Cl)cc2)sc2[nH]c(=O)c(C(=O)O)cc12	–
